The results in this text go back to US20230000773A1, “NOVEL HEADGROUP LIPID COMPOUNDS AND COMPOSITIONS FOR INTRACELLULAR DELIVERY OF THERAPEUTIC AGENTS” (ModernaTX, Inc., priority 2019, published 2023).

For data set [1], the system named is hEPO mRNA. Put plainly: hEPO expression in CD1-mice after intravenous administration of nanoparticles. The settings on record: 6 h after intravenous administration, mRNA dose 0.5 mg/kg, N:P 3.4, compound:DSPC:cholesterol:PEG 2 50:10:38:2. The data set is classed as in vivo. The protocol: The expression of hEPO mRNA in CD1-mice was measured 6 h after intravenous administration of nanoparticles comprising a compound of the disclosure, DSPC, cholesterol, and PEG 2 in a ratio of 50:10:38:2. […] Each composition was dosed to 8 animals at an mRNA dose of 0.5 mg/kg.

A short description of data set [2]: Heparin-sepharose binding of nanoparticles.
Data set [3] is described as follows: Surface hydrophobicity by Generalized Polarization by Laurdan (GPL). The format is physicochemical. The conditions noted are these: normalized Generalized Polarization by Laurdan; higher N-GP = less polar surface. An excerpt: Nanoparticle compositions including a therapeutic and/or prophylactic can be optimized according to the selection of a compound according to Formula (I), (I-1), (A), (A-1), (A-1a), or (A-1b), the selection of additional lipids, the amount of each lipid in the lipid component, and the wt:wt ratio of the lipid component to the therapeutic and/or prophylactic. Nanoparticle compositions including DSPC as a phospholipid, cholesterol as a structural lipid, PEG 2 as a PEG lipid, and a compound according to Formula (I), (I-1), (A), (A-1), (A-1a), or (A-1b) were prepared. The ratios of the lipids were 50:10:38:2 mol % for the lipid according to Formula (I), (I-1), (A), (A-1), (A-1a), or (A-1b):DSPC:cholesterol:PEG 2.
Laurdan, a fluorescent aminonaphthalene ketone lipid, was post-inserted into the nanoparticle surface and the fluorescence spectrum of Laurdan was collected to determine the normalized Generalized Polarization (N-GP). Higher N-GP indicates a less polar surface.

The nature of data set [4]: Apparent LNP pKa by 2-(p-toluidino)-6-napthalene sulfonic acid (TNS) assay. The data set is classed as physicochemical. The settings on record: pH at half of maximum fluorescence.

Where a name gives a salt, the structure may show the parent alone.

Consider `CCCCCCCCC(CC)OC(=O)CCCCCCCN(CCCCCCCC(=O)OC(CCCCCCCC)CCCCCCCC)CCCNS(=O)(=O)c1ccnn1COC` (stereo not shown) [Compound 75, Heptadecan-9-yl 8-((3-((1-(methoxymethyl)-1H-pyrazole)-5-sulfonamido)propyl)(8-oxo-8-(undecan-3-yloxy)octyl)amino)octanoate], for which the “Avg. [hEPO] mIU/mL” value in data set [1] amounted to 6.24E+05 mIU/mL. The “Relative % Area Bound by LNP” value in data set [2] came out at 1.97%. The “Average N-GP” value in data set [3] turned out to be 0.831. Besides, the “LogIC50 (pKa)” value in data set [4] stood at 6.50.

Consider `CCCCCCCCC(CC)OC(=O)CCCCCCCN(CCCCCCCC(=O)OC(CCCCCCCC)CCCCCCCC)CCCNC(=O)CS(=O)(=O)NC` (stereo not shown) [Compound 76, Heptadecan-9-yl 8-((3-(2-(N-methylsulfamoyl)acetamido)propyl)(8-oxo-8-(undecan-3-yloxy)octyl)amino)octanoate], for which the “Avg. [hEPO] mIU/mL” value in data set [1] came to 1.50E+05 mIU/mL. For the same compound, the “Relative % Area Bound by LNP” value in data set [2] was found to be 31.61%. Moreover, the “Average N-GP” value in data set [3] is listed as 0.683. For the same compound, in data set [4], the “LogIC50 (pKa)” value is reported as 6.92.

As for `CCCCCCCCC(CC)OC(=O)CCCCCCCN(CCCCCCCC(=O)OC(CCCCCCCC)CCCCCCCC)CCCNC1=NS(=O)(=O)CCN1` (stereo not shown) [Compound 77, Heptadecan-9-yl 8-((3-((1,1-dioxido-5,6-dihydro-4H-1,2,4-thiadiazin-3-yl)amino)propyl)(8-oxo-8-(undecan-3-yloxy)octyl)amino)octanoate], the “Avg. [hEPO] mIU/mL” value in data set [1] is on record as 7.75E+04 mIU/mL. Further, the “Relative % Area Bound by LNP” value in data set [2] was 0%. The “Average N-GP” value in data set [3] is 0.824. Also, the “LogIC50 (pKa)” value in data set [4] is given as 6.80.

As for `CCCCCCCCC(CC)OC(=O)CCCCCCCN(CCCCCCCC(=O)OC(CCCCCCCC)CCCCCCCC)CCCNC(=O)C1CCC(=O)N1` (stereo not shown) [Compound 78, Heptadecan-9-yl 8-((8-oxo-8-(undecan-3-yloxy)octyl)(3-(5-oxopyrrolidine-2-carboxamido)propyl)amino)octanoate], the “Avg. [hEPO] mIU/mL” value in data set [1] is 1.11E+05 mIU/mL. In data set [2], the “Relative % Area Bound by LNP” value worked out at 36.14%. For the same compound, the “Average N-GP” value in data set [3] came to 0.622. In addition, the “LogIC50 (pKa)” value in data set [4] is reported as 6.94.

For `CCCCCCCCC(CC)OC(=O)CCCCCCCN(CCCCCCCC(=O)OC(CCCCCCCC)CCCCCCCC)CCCNC1=NC(=O)NC1` (stereo not shown) [Compound 79, Heptadecan-9-yl 8-((3-((2-oxo-2,5-dihydro-1H-imidazol-4-yl)amino)propyl)(8-oxo-8-(undecan-3-yloxy)octyl)amino)octanoate], the “Avg. [hEPO] mIU/mL” value in data set [1] came to 4.04E+04 mIU/mL. Besides, the “Relative % Area Bound by LNP” value in data set [2] is 0%. In data set [3], the “Average N-GP” value is 0.683. For the same compound, the “LogIC50 (pKa)” value in data set [4] is 6.23.

For the compound `CCCCCCCCC(CC)OC(=O)CCCCCCCN(CCCCCCCC(=O)OC(CCCCCCCC)CCCCCCCC)CCCNS(=O)(=O)CC(=O)NC` (stereo not shown) [Compound 80, Heptadecan-9-yl 8-((3-((2-(methylamino)-2-oxoethyl)sulfonamido)propyl)(8-oxo-8-(undecan-3-yloxy)octyl)amino)octanoate], the “Avg. [hEPO] mIU/mL” value in data set [1] is 7.69E+04 mIU/mL. Further, in data set [2], the “Relative % Area Bound by LNP” value was determined as 10.99%. In data set [3], the “Average N-GP” value was 0.703. Moreover, in data set [4], the “LogIC50 (pKa)” value came out at 6.75.

For `CCCCCCCCC(CC)OC(=O)CCCCCCCN(CCCCCCCC(=O)OC(CCCCCCCC)CCCCCCCC)CCCNC1=C(C#N)C(=O)OC1` (stereo not shown) [Compound 81, Heptadecan-9-yl 8-((3-((4-cyano-5-oxo-2,5-dihydrofuran-3-yl)amino)propyl)(8-oxo-8-(undecan-3-yloxy)octyl)amino)octanoate Trifluoroacetate Salt], the “Avg. [hEPO] mIU/mL” value in data set [1] was 4.96E+05 mIU/mL. Moreover, the “Relative % Area Bound by LNP” value in data set [2] was 0%. The “Average N-GP” value in data set [3] stood at 0.752. In addition, the “LogIC50 (pKa)” value in data set [4] is given as 6.48.
